Experimental data published in PMC11277991, “Tunicamycins from Marine-Derived Streptomyces bacillaris Inhibit MurNAc-Pentapeptide Translocase in Staphylococcus aureus” (Marine Drugs, 2024).

Molecular target: T1, MurNAc-pentapeptide translocase (MraY) (Staphylococcus aureus, UniProt Q2FZ93)
T1 construct: recombinant His6-tagged MraY from S. aureus ATCC6538p (ca. 36 kDa), expressed in E. coli BL21(DE3)
Test: UMP-Glo luminescence glycosyltransferase assay with purified MraY
Assay type: biochemical

T1 sequence (Q2FZ93 whole entry): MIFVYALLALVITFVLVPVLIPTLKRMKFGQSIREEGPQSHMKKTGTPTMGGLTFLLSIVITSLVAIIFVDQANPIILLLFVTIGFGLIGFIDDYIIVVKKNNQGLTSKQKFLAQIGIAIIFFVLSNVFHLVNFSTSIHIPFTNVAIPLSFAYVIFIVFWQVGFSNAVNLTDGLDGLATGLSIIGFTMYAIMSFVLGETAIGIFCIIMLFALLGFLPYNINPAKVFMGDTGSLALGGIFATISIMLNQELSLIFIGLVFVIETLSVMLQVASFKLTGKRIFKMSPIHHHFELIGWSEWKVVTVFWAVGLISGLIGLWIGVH

## CCC(C)CCCCCCCCCC/C=C/C(=O)N[C@H]1[C@H](O[C@H]2O[C@H](CO)[C@@H](O)[C@H](O)[C@H]2NC(C)=O)O[C@H](C[C@@H](O)[C@H]2O[C@@H](n3ccc(=O)[nH]c3=O)[C@H](O)[C@@H]2O)[C@H](O)[C@@H]1O (stereo partly shown) [compound 3, corynetoxin U17a]
  IC50: 0.0931 µM

## CCCCCCCCCCCCC/C=C/C(=O)N[C@H]1[C@H](O[C@H]2O[C@H](CO)[C@@H](O)[C@H](O)[C@H]2NC(C)=O)O[C@H](C[C@@H](O)[C@H]2O[C@@H](n3ccc(=O)[nH]c3=O)[C@H](O)[C@@H]2O)[C@H](O)[C@@H]1O [compound 2, tunicamycin VIII]
  IC50: 0.154 µM

## CCCCCCCCCCCCCC/C=C/C(=O)N[C@H]1[C@H](O[C@H]2O[C@H](CO)[C@@H](O)[C@H](O)[C@H]2NC(C)=O)O[C@H](C[C@@H](O)[C@H]2O[C@@H](n3ccc(=O)[nH]c3=O)[C@H](O)[C@@H]2O)[C@H](O)[C@@H]1O [compound 4, tunicamycin IX]
  IC50: 0.244 µM

## CC(=O)N[C@H]1[C@@H](O[C@@H]2O[C@H](C[C@@H](O)[C@H]3O[C@@H](n4ccc(=O)[nH]c4=O)[C@H](O)[C@@H]3O)[C@H](O)[C@H](O)[C@H]2NC(=O)/C=C/CCCCCCCCCCC(C)C)O[C@H](CO)[C@@H](O)[C@@H]1O [compound 1, tunicamycin VII]
  IC50: 0.142 µM
